Results taken from ChEMBL document CHEMBL4390687, “Dispiropyrrolidinyl-piperidone embedded indeno[1,2-b]quinoxaline heterocyclic hybrids: Synthesis, cholinesterase inhibitory activity and their molecular docking simulation” (Bioorg Med Chem, 2019).

Assays:
Cholinesterase = Cholinesterase (Equus caballus, UniProt P81908); assay: Inhibition of equine serum BChE using butyrylthiocholine chloride as substrate preincubated for 15 mins followed by substrate addition and measured after 30 mins by Ellman's method
Chain of Cholinesterase (P81908 whole entry): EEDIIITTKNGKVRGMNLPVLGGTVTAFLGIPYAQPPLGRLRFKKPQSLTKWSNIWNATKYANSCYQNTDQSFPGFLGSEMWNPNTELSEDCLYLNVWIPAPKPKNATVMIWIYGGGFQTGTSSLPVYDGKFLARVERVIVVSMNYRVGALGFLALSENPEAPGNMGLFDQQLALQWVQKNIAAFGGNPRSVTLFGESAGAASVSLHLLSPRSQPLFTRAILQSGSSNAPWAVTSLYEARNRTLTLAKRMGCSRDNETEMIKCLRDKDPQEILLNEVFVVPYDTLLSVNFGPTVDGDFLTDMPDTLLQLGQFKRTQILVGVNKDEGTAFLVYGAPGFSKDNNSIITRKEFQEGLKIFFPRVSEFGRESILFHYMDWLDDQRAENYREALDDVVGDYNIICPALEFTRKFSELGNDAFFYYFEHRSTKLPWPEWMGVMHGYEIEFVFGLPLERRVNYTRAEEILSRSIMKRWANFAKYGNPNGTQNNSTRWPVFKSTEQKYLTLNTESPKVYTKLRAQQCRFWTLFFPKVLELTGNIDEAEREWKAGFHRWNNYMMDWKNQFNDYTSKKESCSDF

[1] = Selectivity index, ratio of IC50 for electric eel AChE to IC50 for equine serum BChE
[2] = Selectivity index, ratio of IC50 for equine serum BChE to IC50 for electric eel AChE
Acetylcholinesterase = Acetylcholinesterase (Electrophorus electricus, UniProt O42275); assay: Inhibition of electric eel AChE using acetylthiocholine iodide as substrate preincubated for 15 mins followed by substrate addition and measured after 30 mins by Ellman's method
Chain of Acetylcholinesterase (O42275 whole entry): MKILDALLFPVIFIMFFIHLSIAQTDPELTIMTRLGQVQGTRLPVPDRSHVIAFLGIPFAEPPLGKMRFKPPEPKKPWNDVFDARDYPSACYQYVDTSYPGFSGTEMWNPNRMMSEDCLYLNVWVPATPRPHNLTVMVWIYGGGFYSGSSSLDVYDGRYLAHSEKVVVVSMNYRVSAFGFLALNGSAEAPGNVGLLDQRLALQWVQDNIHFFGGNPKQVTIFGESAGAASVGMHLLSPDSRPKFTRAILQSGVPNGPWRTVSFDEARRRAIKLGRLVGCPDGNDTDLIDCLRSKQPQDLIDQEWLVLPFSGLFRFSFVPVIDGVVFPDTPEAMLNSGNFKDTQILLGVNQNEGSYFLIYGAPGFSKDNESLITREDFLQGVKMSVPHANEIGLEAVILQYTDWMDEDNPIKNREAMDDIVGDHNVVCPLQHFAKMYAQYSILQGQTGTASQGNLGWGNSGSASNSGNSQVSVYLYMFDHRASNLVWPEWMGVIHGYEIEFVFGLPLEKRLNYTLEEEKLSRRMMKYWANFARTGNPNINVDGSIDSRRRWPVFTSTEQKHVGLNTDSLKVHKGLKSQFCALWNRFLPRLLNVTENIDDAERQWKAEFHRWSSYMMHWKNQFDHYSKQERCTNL

SMILES	IC50 (Cholinesterase) [µM]	Ratio IC50 [1]	Ratio IC50 [2]	IC50 (Acetylcholinesterase) [µM]
O=C1/C(=C/c2ccc(Cl)cc2)CNCC12C(c1ccc(Cl)cc1)C(Cc1c[nH]c3ccccc13)NC21c2ccccc2C2N=c3ccccc3=NC21 (stereo not given)	18.8	0.67	1.5	12.5
Cc1ccc(/C=C2\CNCC3(C2=O)C(c2ccc(C)cc2)C(Cc2c[nH]c4ccccc24)NC32c3ccccc3C3N=c4ccccc4=NC32)cc1 (stereo not given)	12.4	0.26	3.85	3.22
O=C1/C(=C/c2ccccc2)CNCC12C(c1ccccc1)C(Cc1c[nH]c3ccccc13)NC21c2ccccc2C2N=c3ccccc3=NC21 (stereo not given)	14.2	0.52	1.93	7.35
O=C1/C(=C/c2cccc([N+](=O)[O-])c2)CNCC12C(c1cccc([N+](=O)[O-])c1)C(Cc1c[nH]c3ccccc13)NC21c2ccccc2C2N=c3ccccc3=NC21 (stereo not given)	10.5	0.19	5.2	2.01
O=C1/C(=C/c2ccccc2Cl)CNCC12C(c1ccccc1Cl)C(Cc1c[nH]c3ccccc13)NC21c2ccccc2C2N=c3ccccc3=NC21 (stereo not given)	26.7	0.62	1.63	16.4
Cc1cccc(/C=C2\CNCC3(C2=O)C(c2cccc(C)c2)C(Cc2c[nH]c4ccccc24)NC32c3ccccc3C3N=c4ccccc4=NC32)c1 (stereo not given)	15.2	0.45	2.22	6.84
Cc1ccccc1/C=C1\CNCC2(C1=O)C(c1ccccc1C)C(Cc1c[nH]c3ccccc13)NC21c2ccccc2C2N=c3ccccc3=NC21 (stereo not given)	14.7	0.39	2.54	5.8
O=C1/C(=C/c2ccc(Br)cc2)CNCC12C(c1ccc(Br)cc1)C(Cc1c[nH]c3ccccc13)NC21c2ccccc2C2N=c3ccccc3=NC21 (stereo not given)	20.6	0.74	1.35	15.2
COc1ccc(/C=C2\CNCC3(C2=O)C(c2ccc(OC)cc2)C(Cc2c[nH]c4ccccc24)NC32c3ccccc3C3N=c4ccccc4=NC32)cc1 (stereo not given)	23.2	0.31	3.22	7.2
O=C1/C(=C/c2ccc(Cl)cc2Cl)CNCC12C(c1ccc(Cl)cc1Cl)C(Cc1c[nH]c3ccccc13)NC21c2ccccc2C2N=c3ccccc3=NC21 (stereo not given)	17.6	0.58	1.73	10.2
